ChEMBL document CHEMBL2346598, “Synthesis and pharmacological characterization of 2-(acylamino)thiophene derivatives as metabolically stable, orally effective, positive allosteric modulators of the GABAB receptor” (J Med Chem, 2013)
Calls of active or inactive are those of the source. No cut-off for these calls is given here.

Columns and labels:
Rattus norvegicus [1] = organism: Rattus norvegicus; assay: Positive allosteric modulation of GABAB receptor in rat cortical membranes assessed as potentiation of GABA-induced [35S]GTPgammaS binding at 25 uM after 30 mins by liquid scintillation counting analysis relative to GABA; format: functional, cell membranes; settings: Membrane
Rattus norvegicus [2] = organism: Rattus norvegicus; assay: Positive allosteric modulation of GABAB receptor in rat cortical membranes assessed as potentiation of GABA-induced [35S]GTPgammaS binding after 30 mins by liquid scintillation counting analysis; format: functional, cell membranes; settings: Membrane
Rattus norvegicus [3] = organism: Rattus norvegicus; assay: Positive allosteric modulation of GABAB receptor in rat cortical membranes assessed as stimulation of [35S]GTPgammaS binding up to 100 uM after 30 mins by liquid scintillation counting analysis; format: functional, cell membranes; settings: Membrane
Rattus norvegicus [4] = organism: Rattus norvegicus; assay: Positive allosteric modulation of GABAB receptor in rat cortical membranes assessed as potentiation of GABA-induced [35S]GTPgammaS binding at 2.5 uM after 30 mins by liquid scintillation counting analysis relative to GABA; format: functional, cell membranes; settings: Membrane
NIH3T3 = assay: Cytotoxicity against mouse NIH/3T3 cells after 24 hrs by neutral red staining-based UV/visible spectrophotometric analysis; format: cell-based; settings: NIH3T3, 24 h
Mus musculus [5] = assay: Hypnotic effect in DBA mouse assessed as increase in baclofen-induced duration of loss of righting reflex at 100 to 300 mg/kg, ip incubated for 30 mins prior to baclofen-challenge relative to vehicle-treated control; format: functional, organism-based
Mus musculus [6] = assay: Hypnotic effect in DBA mouse assessed as reduction in pentobarbital-induced onset of loss of righting reflex at 100 mg/kg, ip incubated for 30 mins prior to pentobarbital-challenge (reference value: 60.0 +/- 0.0 min); format: functional; settings: route intraperitoneal
Mus musculus [7] = assay: Hypnotic effect in DBA mouse assessed as increase in pentobarbital-induced duration of loss of righting reflex at 100 mg/kg, ip incubated for 30 mins prior to pentobarbital-challenge; format: functional; settings: route intraperitoneal
Mus musculus [8] = assay: Hypnotic effect in DBA mouse assessed as increase in pentobarbital-induced duration of loss of righting reflex at 300 mg/kg, ip incubated for 30 mins prior to pentobarbital-challenge; format: functional; settings: route intraperitoneal
Mus musculus [9] = assay: Hypnotic effect in DBA mouse assessed as potentiation of baclofen-induced loss of righting reflex at 30 mg/kg, ip incubated for 30 mins prior to baclofen-challenge; format: functional, organism-based; set-up: dose 30 mg/kg
Mus musculus [10] = assay: Hypnotic effect in DBA mouse assessed as potentiation of baclofen-induced loss of righting reflex at 300 mg/kg, ip incubated for 30 mins prior to baclofen-challenge; format: functional, organism-based; set-up: dose 300 mg/kg
Mus musculus [11] = assay: Hypnotic effect in DBA mouse assessed as increase in pentobarbital-induced duration of loss of righting reflex at 30 mg/kg, ip incubated for 30 mins prior to pentobarbital-challenge; format: functional; settings: route intraperitoneal
Mus musculus [12] = assay: Hypnotic effect in DBA mouse assessed as potentiation of baclofen-induced loss of righting reflex at 10 mg/kg, ip incubated for 30 mins prior to baclofen-challenge; format: functional, organism-based; set-up: dose 10 mg/kg
Mus musculus [13] = assay: Hypnotic effect in DBA mouse assessed as reduction in baclofen-induced onset of loss of righting reflex at 300 mg/kg, ig incubated for 30 mins prior to baclofen-challenge relative to vehicle-treated control; format: functional, organism-based; set-up: dose 300 mg/kg
Mus musculus [14] = assay: Hypnotic effect in DBA mouse assessed as reduction in pentobarbital-induced onset of loss of righting reflex at 30 mg/kg, ip incubated for 30 mins prior to pentobarbital-challenge (reference value: 60.0 +/- 0.0 min); format: functional; settings: route intraperitoneal
Mus musculus [15] = assay: Hypnotic effect in DBA mouse assessed as potentiation of pentobarbital-induced loss of righting reflex at 300 mg/kg, ip incubated for 30 mins prior to pentobarbital-challenge; format: functional, organism-based; set-up: dose 300 mg/kg
Mus musculus [16] = assay: Hypnotic effect in DBA mouse assessed as potentiation of baclofen-induced loss of righting reflex at 100 mg/kg, ip incubated for 30 mins prior to baclofen-challenge; format: functional, organism-based; set-up: dose 100 mg/kg
Mus musculus [17] = assay: Hypnotic effect in DBA mouse assessed as potentiation of baclofen-induced loss of righting reflex at 3 mg/kg, ip incubated for 30 mins prior to baclofen-challenge; format: functional, organism-based; set-up: dose 3 mg/kg
Mus musculus [18] = assay: Hypnotic effect in DBA mouse assessed as increase in baclofen-induced duration of loss of righting reflex at 300 mg/kg, ig incubated for 30 mins prior to baclofen-challenge relative to vehicle-treated control; format: functional, organism-based; set-up: dose 300 mg/kg
Mus musculus [19] = assay: Hypnotic effect in DBA mouse assessed as reduction in pentobarbital-induced onset of loss of righting reflex at 300 mg/kg, ip incubated for 30 mins prior to pentobarbital-challenge (reference value: 60.0 +/- 0.0 min); format: functional; settings: route intraperitoneal
Rattus norvegicus [20] = organism: Rattus norvegicus; assay: Positive allosteric modulation of GABAB receptor in rat cortical membranes assessed as potentiation of GABA-induced [35S]GTPgammaS binding at 10 uM after 30 mins by liquid scintillation counting analysis relative to GABA; format: functional, cell membranes; settings: Membrane
Mus musculus [21] = assay: Hypnotic effect in DBA mouse assessed as potentiation of pentobarbital-induced loss of righting reflex at 100 mg/kg, ip incubated for 30 mins prior to pentobarbital-challenge; format: functional, organism-based; set-up: dose 100 mg/kg
Mus musculus [22] = assay: Hypnotic effect in ip dosed DBA mouse assessed as increase in baclofen-induced duration of loss of righting reflex incubated for 30 mins prior to baclofen-challenge; format: functional, organism-based
Mus musculus [23] = assay: Hypnotic effect in DBA mouse assessed as reduction in baclofen-induced onset of loss of righting reflex over 10 mg/kg, ip incubated for 30 mins prior to baclofen-challenge relative to vehicle-treated control; format: functional, organism-based; set-up: dose 10 mg/kg
Mus musculus [24] = assay: Hypnotic effect in DBA mouse assessed as potentiation of pentobarbital-induced loss of righting reflex at 30 mg/kg, ip incubated for 30 mins prior to pentobarbital-challenge; format: functional, organism-based; set-up: dose 30 mg/kg
Mus musculus [25] = assay: Hypnotic effect in DBA mouse assessed as potentiation of baclofen-induced loss of righting reflex at 300 mg/kg, ig incubated for 30 mins prior to baclofen-challenge; format: functional, organism-based; set-up: dose 300 mg/kg
Mus musculus [26] = assay: Hypnotic effect in ip dosed DBA mouse assessed as reduction in baclofen-induced onset of loss of righting reflex incubated 30 mins prior to baclofen-challenge; format: functional, organism-based
[27] = Ratio of compound IC50 to COR627 IC50 for mouse NIH/3T3 cells; format: ADME, cell-based, NIH3T3; settings: read-out: Ratio IC50
[28] = Ratio of compound IC50 to COR628 IC50 for mouse NIH/3T3 cells; format: ADME, cell-based, NIH3T3; settings: read-out: Ratio IC50

## CCc1c(C)sc(NC(=O)c2cccc(Cl)c2)c1C(=O)OC
Rattus norvegicus [1]
  Activity: 11%
Rattus norvegicus [2]
  Activity: inactive
Rattus norvegicus [3]
  Activity: inactive
Rattus norvegicus [4]
  Activity: 4%

## CCc1c(C)sc(NC(=O)c2ccc(I)cc2)c1C(=O)OC
Rattus norvegicus [2]
  Activity: inactive
Rattus norvegicus [3]
  Activity: inactive

## CCc1c(C)sc(NC(=O)Oc2ccccc2)c1C(=O)OC
Rattus norvegicus [1]
  Activity: 8.2%
Rattus norvegicus [2]
  Activity: inactive
Rattus norvegicus [3]
  Activity: inactive
Rattus norvegicus [4]
  Activity: 3.9%

## CCc1c(C)sc(NC(=O)c2ccc(C)cc2)c1C(=O)OC(C)(C)C
Rattus norvegicus [2]
  Activity: inactive
Rattus norvegicus [3]
  Activity: inactive

## CCCOC(=O)c1c(NC(=O)c2ccc(Cl)cc2)sc(C)c1CC
Rattus norvegicus [2]
  Activity: inactive
Rattus norvegicus [3]
  Activity: inactive

## CCc1c(C)sc(NC(=O)C2CCCC2)c1C(=O)OC
Rattus norvegicus [1]
  Activity: 12.1%
NIH3T3
  IC50: 34 µM
Rattus norvegicus [2]
  Activity: inactive
Rattus norvegicus [3]
  Activity: inactive
Rattus norvegicus [4]
  Activity: 3%

## Cc1ncc(-c2ccc(C(F)(F)F)cc2)c(N[C@@H]2C[C@H]3CC[C@@H]2C3)n1
NIH3T3
  IC50: 35 µM

## CCc1c(C)sc(NS(=O)(=O)c2ccc(C)cc2)c1C(=O)OC
Rattus norvegicus [2]
  Activity: inactive
Rattus norvegicus [3]
  Activity: inactive

## CCCOC(=O)c1c(NC(=O)c2ccc(C)cc2)sc(C)c1CC
Rattus norvegicus [2]
  Activity: inactive
Rattus norvegicus [3]
  Activity: inactive

## CCc1c(C)sc(NC(=O)c2ccc(Cl)cc2)c1C(=O)OC(C)(C)C
Rattus norvegicus [2]
  Activity: inactive
Rattus norvegicus [3]
  Activity: inactive

## COC(=O)c1ccsc1NC(=O)c1ccccc1
Rattus norvegicus [2]
  Activity: inactive
Rattus norvegicus [3]
  Activity: inactive

## CCc1c(C)sc(NC(=O)Cc2ccccc2)c1C(=O)OC
Rattus norvegicus [2]
  Activity: inactive
Rattus norvegicus [3]
  Activity: inactive

## CCc1c(C)sc(NC(=O)C(C)(C)C)c1C(=O)OC
Rattus norvegicus [2]
  Activity: inactive
Rattus norvegicus [3]
  Activity: inactive

## CCc1c(C)sc(NC(C)=O)c1C(=O)OC
Rattus norvegicus [2]
  Activity: inactive
Rattus norvegicus [3]
  Activity: inactive

## COc1ccc(C(=O)Nc2sc3c(c2C#N)CCCC3)cc1OC
Rattus norvegicus [2]
  Activity: inactive
Rattus norvegicus [3]
  Activity: inactive

## CCc1c(C)sc(NC(=O)C23CC4CC(CC(C4)C2)C3)c1C(=O)OC
Rattus norvegicus [1]
  Activity: 22%
NIH3T3
  IC50: 32 µM
Rattus norvegicus [4]
  Activity: 9.2%

## CCc1c(C)sc(NC(=O)c2ccc(-c3ccc(C)cc3)cc2)c1C(=O)OC
Rattus norvegicus [2]
  Activity: inactive
Rattus norvegicus [3]
  Activity: inactive

## CCc1c(C)sc(N(C)C(=O)c2ccc(Cl)cc2)c1C(=O)OC
Rattus norvegicus [2]
  Activity: inactive
Rattus norvegicus [3]
  Activity: inactive

## CCc1c(C)sc(NC(=O)C2CCCCC2)c1C(=O)OC
Rattus norvegicus [1]
  Activity: 15.1%
NIH3T3
  IC50: 33 µM
Rattus norvegicus [4]
  Activity: 2%

## COC(=O)c1ccsc1NC(=O)c1ccc(Cl)cc1
Rattus norvegicus [2]
  Activity: inactive
Rattus norvegicus [3]
  Activity: inactive

## CCc1c(C)sc(NC(=O)c2ccc(-c3ccccc3)cc2)c1C(=O)OC
Rattus norvegicus [2]
  Activity: inactive
Rattus norvegicus [3]
  Activity: inactive

## CCc1c(C)sc(NC(=O)c2ccc(-c3cccnc3)cc2)c1C(=O)OC
Rattus norvegicus [2]
  Activity: inactive
Rattus norvegicus [3]
  Activity: inactive

## CCc1c(C)sc(NC(=O)c2ccccc2Cl)c1C(=O)OC
Rattus norvegicus [2]
  Activity: inactive
Rattus norvegicus [3]
  Activity: inactive

## CCc1c(C)sc(NC(=O)c2ccccc2)c1C(=O)OC
Rattus norvegicus [1]
  Activity: 12%
NIH3T3
  IC50: 66 µM
Rattus norvegicus [2]
  Activity: inactive
Rattus norvegicus [3]
  Activity: inactive
Rattus norvegicus [4]
  Activity: 3.1%

## CCc1c(C)sc(NC(=O)c2ccc(OC)cc2)c1C(=O)OC
Rattus norvegicus [2]
  Activity: inactive
Rattus norvegicus [3]
  Activity: inactive

## CCc1c(C)sc(NS(=O)(=O)c2ccccc2)c1C(=O)OC
Rattus norvegicus [1]
  Activity: 5.9%
NIH3T3
  IC50: 146 µM
Rattus norvegicus [2]
  Activity: inactive
Rattus norvegicus [3]
  Activity: inactive
Rattus norvegicus [4]
  Activity: 2.9%

## COC(=O)c1c(NC(=O)c2ccccc2)sc2c1CCCC2
Rattus norvegicus [2]
  Activity: inactive
Rattus norvegicus [3]
  Activity: inactive

## CSc1nc(NC2CCCC2)c([N+](=O)[O-])c(NC2CCCC2)n1 [GS-39783]
Mus musculus [5]
  Activity: Active
Mus musculus [6]
  Time: 60 min
Mus musculus [7]
  Time: 0 min
Mus musculus [8]
  Time: 2.3 min
NIH3T3
  IC50: 60 µM
Mus musculus [9]
  Activity: Active
Mus musculus [10]
  Activity: Active
Mus musculus [11]
  Time: 0 min
Mus musculus [12]
  Activity: Active
Mus musculus [13]
  Activity: Active
Mus musculus [14]
  Time: 60 min
Mus musculus [15]
  Activity: Active
Mus musculus [16]
  Activity: Active
Mus musculus [17]
  Activity: inactive
Mus musculus [18]
  Activity: Active
Mus musculus [19]
  Time: 57.3 min
Rattus norvegicus [20]
  Activity: 59%
Mus musculus [21]
  Activity: inactive
Mus musculus [22]
  Activity: Dose-dependent effect
Mus musculus [23]
  Activity: Active
Mus musculus [24]
  Activity: inactive
Mus musculus [25]
  Activity: Active
Mus musculus [26]
  Activity: Dose-dependent effect

## CCc1c(C)sc(NC(=O)C2CC2)c1C(=O)OC
Rattus norvegicus [2]
  Activity: inactive
Rattus norvegicus [3]
  Activity: inactive

## CCc1c(C)sc(NS(=O)(=O)C2CCCCC2)c1C(=O)OC
Rattus norvegicus [2]
  Activity: inactive
Rattus norvegicus [3]
  Activity: inactive

## CCc1c(C)sc(NC(=O)c2ccc([N+](=O)[O-])cc2)c1C(=O)OC
Rattus norvegicus [2]
  Activity: inactive
Rattus norvegicus [3]
  Activity: inactive

## N#Cc1c(NC(=O)C2CCCCC2)sc2c1CCCC2
[27]
  selectivity ratio: 4
Rattus norvegicus [2]
  Activity: inactive
Rattus norvegicus [3]
  Activity: inactive
[28]
  selectivity ratio: 4

## CCc1c(C)sc(NC(=O)c2ccc(Br)cc2)c1C(=O)OC
Rattus norvegicus [2]
  Activity: inactive
Rattus norvegicus [3]
  Activity: inactive

## COC(=O)c1c(NC(=O)C2CCCCC2)sc2c1CCCC2
Rattus norvegicus [1]
  Activity: 12%
NIH3T3
  IC50: 62 µM
Rattus norvegicus [2]
  Activity: inactive
Rattus norvegicus [3]
  Activity: inactive
Rattus norvegicus [4]
  Activity: -5.6%

## COC(=O)c1c(NC(=O)c2ccc(OC)c(OC)c2)sc2c1CCCC2
Rattus norvegicus [1]
  Activity: 9%
Rattus norvegicus [2]
  Activity: inactive
Rattus norvegicus [3]
  Activity: inactive
Rattus norvegicus [4]
  Activity: -4.1%
